Data from PubChem BioAssay AID1963846 (Molecular Pharmacology Branch, DTP, NCI, 2024).
Where “and” joins values, the source holds several entries; their conditions need not be identical. Identical values can stand only once.

Test system: 454973-116-R2-J3-PDC complex spheroid viability
Experiment: Anticancer human tumor 454973-116-R2-J3-PDC patient-derived pancreatic carcinoma cell line growth inhibition [POLQ]
Conditions: for viability, T/C: stronger effect = lower value
Procedure: Multicellular complex tumor spheroid response to Polymerase (POL) inhibitors (novobiocin, ART-558, RP6685) in combination with a variety of drugs and investigational agents in selected tumor cell lines
The POL inhibitors (novobiocin, ART-558, and RP6685) were evaluated both individually and in combination with standard of care and investigational anticancer small molecules within a complex spheroid model of solid tumors. . Complex spheroids include a stromal component modeled by human endothelial cells (HUVEC) and fibroblasts modeled by human mesenchymal stem cells (MSCs). The concentration ranges selected for each drug and investigational agent were based upon clinically achievable concentrations if the clinical Cmax of the agent was known.
Compounds. The drugs and investigational agents: novobiocin (NSC847541), ART-558 (NSC835418), RP-6685 (NSC848927), peposertib (NSC802822), ceralasertib (NSC780249), elimusertib (NSC800525), camonsertib (NSC841442), AZD-1390 (NSC803789), olaparib (NSC753686), talazoparib (NSC767125), rucaparib (NSC756644), sotorasib (NSC818433), MRTX-1133 (NSC836407), SN-38 (NSC673596), topotecan (NSC609699), epotoside (NSC141540), doxorubicin (NSC123127), gemcitabine (NSC613327), 5-fluorouracil (NSC19893), paclitaxel (NSC125973), vemurafenib (NSC761431), MSA-2 (NSC828583), SN-011 (NSC837082), adavosertib (NSC754352), prexasertib (NSC758257), carboplatin (NSC241240) and oxaliplatin (NSC266046), were obtained from the National Cancer Institute (NCI) Developmental Therapeutics Program Chemical Repository (21). The FDA-approved anticancer drug set is available from the Developmental Therapeutics Program at https://dtp.cancer.gov/organization/dscb/obtaining/. […] The stock solutions were prepared in dimethyl sulfoxide (DMSO, Sigma-Aldrich, St. Louis, MO, cat. D2650), except for the platinum compounds which were prepared in saline (Quality Biological, Gaithersburg, MD, cat. 114-055-101), at 800-fold the tested concentration and stored at -70 degrees C prior to their use. All drugs and investigational agents were tested over a range starting from a high concentration at or near the clinical Cmax and decreasing in half-log increments. If the clinical Cmax for an agent had not been determined, the highest concentration tested was 10 microM, except for SN-38, which was tested at a high concentration of 1 microM.
Cell Culture. All cells were maintained in an incubator at 37 degrees C and 5% CO2 with 95% humidity. The PDC lines were cultured according to standard operating procedures established by the NCI PDMR (https://pdmr.cancer.gov). Table 3 of the manuscript, lists the cell lines along with the number of the three cell types plated to form the mct-spheroids and media for tumor cell growth. After thawing, all PDC lines, except 997537-175-T-J1-PDC and 415267-285-R-J2-PDC, were cultured in Matrigel-coated flasks prepared with a working solution of 1X Ham's F-12 nutrient mix, without supplementation (Thermo Fisher Scientific, cat. 11765054), 100 U/mL penicillin-streptomycin (Thermo Fisher Scientific, cat. 15140122), and 2.5% Matrigel (Corning Inc., Corning, NY, cat. 354248) for the first three passages. The two PDC lines 997537-175-T-J1-PDC and 415267-285-R-J2-PDC were cultured on uncoated flasks. The 857933-349-R-J2-PDC line was cultured in 6C/Colon 1B media containing advanced DMEM/F-12 (Thermo Fisher Scientific, cat. 12634028), 10 mM HEPES (Thermo Fisher Scientific, cat. 15630080), 1X GlutaMAX supplement (Thermo Fisher Scientific, cat. 35050061), 0.1 mg/mL primocin (InvivoGen, San Diego, CA, cat. ant-pm-2), 10% defined fetal bovine serum, heat inactivated (HyClone Laboratories Inc., Logan, UT, cat. SH30070.03HI), 50% L-WRN conditioned media (ATCC, cat. CRL-3276), 1.25 mM N-Acetyl-L-cysteine (Sigma-Aldrich, cat. A9165), 10 mM nicotinamide (Sigma-Aldrich, cat. N0636), 1X B-27 supplement (Thermo Fisher Scientific, cat. 17504044), 1X N-2 supplement (Thermo Fisher Scientific, cat. […]
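Also: spheroids exposed to drugs for seven days before measurement.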
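For viability, T/C in this document: percent viability relative to DMSO vehicle control wells taken as 100%.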

In the case of `CC(C)n1c(=O)n(C)c2cnc3cc(F)c(-c4ccc(OCCCN5CCCCC5)nc4)cc3c21`, the viability, T/C (compound 0.0316 µM) is reported as 106% and 110% and 109%, the viability, T/C (compound 0.1 µM) is reported as 96.6% and 98.5% and 110% and the viability, T/C (compound 0.316 µM) is reported as 107% and 110% and 113%. For the same molecule, the viability, T/C (compound 1 µM) was 109% and 97.5% and 118%, the viability, T/C (compound 3.16 µM) was 98% and 97.2% and 102% and the viability, T/C (compound 10 µM) was 81.2% and 84% and 89.7%. The IC50 (curve of compound) was over 10000 nM.
In the case of `COc1cccc2c1C(=O)c1c(O)c3c(c(O)c1C2=O)CC(O)(C(=O)CO)CC3OC1CC(N)C(O)C(C)O1` (stereo unspecified) + Cc1cccc(N(C)C(=O)C2C(O)CCN2c2nc(C)cc(C(F)(F)F)c2C#N)c1, the IC50 (curve of first compound, second compound 0.0316 µM) is reported as 59.7 nM, the IC50 (curve of first compound, second compound 0.1 µM) is reported as 62.8 nM and the IC50 (curve of first compound, second compound 0.316 µM) is reported as 61.5 nM. For the same molecule, the IC50 (curve of first compound, second compound 1 µM) was 59.8 nM, the IC50 (curve of first compound, second compound 3.16 µM) was 48.6 nM and the IC50 (curve of first compound, second compound 10 µM) was 54.6 nM. It also gave a viability, T/C (second compound 0.0316 µM, first compound 0.0316 µM) of 72.9%, a viability, T/C (second compound 0.0316 µM, first compound 0.1 µM) of 25.9% and a viability, T/C (second compound 0.0316 µM, first compound 0.316 µM) of 22.1%. It also gave a viability, T/C (second compound 0.0316 µM, first compound 1 µM) of 10.9%, a viability, T/C (second compound 0.0316 µM, first compound 3.16 µM) of 0.31% and a viability, T/C (second compound 0.0316 µM, first compound 10 µM) of 0.23%. The viability, T/C (second compound 0.1 µM, first compound 0.0316 µM) was 71.8%, the viability, T/C (second compound 0.1 µM, first compound 0.1 µM) was 29.3% and the viability, T/C (second compound 0.1 µM, first compound 0.316 µM) was 26.9%. For the same molecule, the viability, T/C (second compound 0.1 µM, first compound 1 µM) was 8.87%, the viability, T/C (second compound 0.1 µM, first compound 3.16 µM) was 1.7% and the viability, T/C (second compound 0.1 µM, first compound 10 µM) was 0.22%. The viability, T/C (second compound 0.316 µM, first compound 0.0316 µM) was 70.3%, the viability, T/C (second compound 0.316 µM, first compound 0.1 µM) was 30.2% and the viability, T/C (second compound 0.316 µM, first compound 0.316 µM) was 24.2%. The viability, T/C (second compound 0.316 µM, first compound 1 µM) was 9.69%, the viability, T/C (second compound 0.316 µM, first compound 3.16 µM) was 0.35% and the viability, T/C (second compound 0.316 µM, first compound 10 µM) was 0.28%. It also gave a viability, T/C (second compound 1 µM, first compound 0.0316 µM) of 67.8%, a viability, T/C (second compound 1 µM, first compound 0.1 µM) of 30.9% and a viability, T/C (second compound 1 µM, first compound 0.316 µM) of 26.6%. The viability, T/C (second compound 1 µM, first compound 1 µM) was 9.52%, the viability, T/C (second compound 1 µM, first compound 3.16 µM) was 0.41% and the viability, T/C (second compound 1 µM, first compound 10 µM) was 0.32%. The viability, T/C (second compound 3.16 µM, first compound 0.0316 µM) was 56.3%, the viability, T/C (second compound 3.16 µM, first compound 0.1 µM) was 38.4% and the viability, T/C (second compound 3.16 µM, first compound 0.316 µM) was 25.6%. The viability, T/C (second compound 3.16 µM, first compound 1 µM) was 6.92%, the viability, T/C (second compound 3.16 µM, first compound 3.16 µM) was 0.38% and the viability, T/C (second compound 3.16 µM, first compound 10 µM) was 0.33%. It also gave a viability, T/C (second compound 10 µM, first compound 0.0316 µM) of 63.8%, a viability, T/C (second compound 10 µM, first compound 0.1 µM) of 33% and a viability, T/C (second compound 10 µM, first compound 0.316 µM) of 22%. The viability, T/C (second compound 10 µM, first compound 1 µM) was 7.02%, the viability, T/C (second compound 10 µM, first compound 3.16 µM) was 0.38% and the viability, T/C (second compound 10 µM, first compound 10 µM) was 0.49%.
With `COc1cc(C2c3cc4c(cc3C(OC3OC5COC(C)OC5C(O)C3O)C3COC(=O)C23)OCO4)cc(OC)c1O` (stereo unspecified) the viability, T/C (compound 0.0316 µM) was 102% and 100% and 103%, the viability, T/C (compound 0.1 µM) was 94.6% and 100% and 97.6% and the viability, T/C (compound 0.316 µM) was 87.3% and 85.4% and 94.8%. The viability, T/C (compound 1 µM) was 64.4% and 47.4% and 68.4%, the viability, T/C (compound 3.16 µM) was 27% and 15.3% and 23.4% and the viability, T/C (compound 10 µM) was 11% and 6.79% and 10.2%. For the same molecule, the IC50 (curve of compound) was 1530 nM and 921 nM and 1600 nM.
